We go through 2 compounds from paper PMC4286194 (Biochemical Journal, 2015).

For assay [1], the target named is HER4 (Homo sapiens, UniProt Q15303). The assay is described as follows: Kinase profiling. It is filed as biochemical.
Assay [2] deals with PKB beta (Homo sapiens, UniProt P31751). The assay is described as follows: Kinase profiling. The assay is classed as biochemical.
Assay [3] deals with Bone-marrow-derived macrophages. The assay is described as follows: Pro-inflammatory cytokine secretion (BIOPLEX). It is filed as cell-based, mouse. The following applies: 3 μM bosutinib or 0.3 μM dasatinib 1 h, LPS 8 h. As to the method: The concentration of TNFα, IL-6, IL-10 and IL-12p40 in cell-free culture supernatants were measured using the Bio-Plex Pro Assay system (Bio-Rad).

Assay [4] deals with T1, LKB1 (Homo sapiens, UniProt Q15831).
T1 sequence (Q15831 1-433): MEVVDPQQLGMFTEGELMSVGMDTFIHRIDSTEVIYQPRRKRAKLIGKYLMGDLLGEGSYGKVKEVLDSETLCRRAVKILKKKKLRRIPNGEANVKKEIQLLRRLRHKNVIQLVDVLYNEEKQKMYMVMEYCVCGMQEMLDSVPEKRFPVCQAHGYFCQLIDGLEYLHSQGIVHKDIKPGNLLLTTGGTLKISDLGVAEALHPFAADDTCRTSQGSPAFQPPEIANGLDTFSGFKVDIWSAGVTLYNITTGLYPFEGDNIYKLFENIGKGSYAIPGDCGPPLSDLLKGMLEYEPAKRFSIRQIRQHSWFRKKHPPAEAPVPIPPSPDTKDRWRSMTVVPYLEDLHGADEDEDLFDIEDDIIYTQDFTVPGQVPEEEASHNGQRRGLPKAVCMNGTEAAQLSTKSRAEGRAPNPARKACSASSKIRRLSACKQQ
T1 sequence (Q7RTN6 1-431 partner): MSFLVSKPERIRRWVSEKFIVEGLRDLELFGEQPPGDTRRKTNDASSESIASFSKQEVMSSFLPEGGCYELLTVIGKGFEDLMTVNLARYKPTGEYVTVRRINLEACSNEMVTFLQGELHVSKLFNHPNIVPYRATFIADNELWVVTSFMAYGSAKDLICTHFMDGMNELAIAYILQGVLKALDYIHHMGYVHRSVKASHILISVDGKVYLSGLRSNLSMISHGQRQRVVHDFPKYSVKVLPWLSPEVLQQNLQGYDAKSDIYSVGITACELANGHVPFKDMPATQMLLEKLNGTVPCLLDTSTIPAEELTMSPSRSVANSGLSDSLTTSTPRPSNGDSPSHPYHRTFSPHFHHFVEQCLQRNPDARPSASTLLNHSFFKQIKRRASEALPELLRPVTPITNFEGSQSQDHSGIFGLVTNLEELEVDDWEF
T1 sequence (Q9Y376 1-341 partner): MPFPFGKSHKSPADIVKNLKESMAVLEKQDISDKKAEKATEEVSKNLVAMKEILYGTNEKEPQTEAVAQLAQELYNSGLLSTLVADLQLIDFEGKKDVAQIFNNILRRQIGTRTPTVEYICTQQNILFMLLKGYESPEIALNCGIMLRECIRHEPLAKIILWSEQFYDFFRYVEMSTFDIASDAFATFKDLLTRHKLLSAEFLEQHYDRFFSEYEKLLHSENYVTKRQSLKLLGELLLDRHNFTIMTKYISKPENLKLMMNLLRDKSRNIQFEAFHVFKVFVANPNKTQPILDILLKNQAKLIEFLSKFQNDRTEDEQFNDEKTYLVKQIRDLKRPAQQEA
The assay is described as follows: Kinase profiling. It is filed as biochemical.

In assay [5] the target is T2, PDK1 (Homo sapiens, UniProt O15530).
T2 sequence (O15530 1-556): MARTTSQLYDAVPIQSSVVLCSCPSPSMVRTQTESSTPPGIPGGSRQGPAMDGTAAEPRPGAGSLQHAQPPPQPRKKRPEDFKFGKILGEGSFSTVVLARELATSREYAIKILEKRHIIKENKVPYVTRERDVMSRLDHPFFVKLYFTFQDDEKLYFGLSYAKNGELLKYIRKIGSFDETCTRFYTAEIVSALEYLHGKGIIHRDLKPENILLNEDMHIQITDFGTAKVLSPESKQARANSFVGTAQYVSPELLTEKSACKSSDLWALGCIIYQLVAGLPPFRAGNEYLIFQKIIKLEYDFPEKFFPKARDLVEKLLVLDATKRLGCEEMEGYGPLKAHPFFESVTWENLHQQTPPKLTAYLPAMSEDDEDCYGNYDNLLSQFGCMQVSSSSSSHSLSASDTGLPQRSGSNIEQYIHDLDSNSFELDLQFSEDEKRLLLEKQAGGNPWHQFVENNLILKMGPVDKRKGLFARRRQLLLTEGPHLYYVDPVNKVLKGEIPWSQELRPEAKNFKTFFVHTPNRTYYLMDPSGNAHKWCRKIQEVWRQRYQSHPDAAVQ
Description: Kinase profiling. The assay is classed as biochemical.

The target in assay [6] is CK1 gamma 2 (Homo sapiens, UniProt P78368). The assay is described as follows: Kinase profiling. The assay is classed as biochemical.
CK1 gamma 2, sequence (P78368 whole entry): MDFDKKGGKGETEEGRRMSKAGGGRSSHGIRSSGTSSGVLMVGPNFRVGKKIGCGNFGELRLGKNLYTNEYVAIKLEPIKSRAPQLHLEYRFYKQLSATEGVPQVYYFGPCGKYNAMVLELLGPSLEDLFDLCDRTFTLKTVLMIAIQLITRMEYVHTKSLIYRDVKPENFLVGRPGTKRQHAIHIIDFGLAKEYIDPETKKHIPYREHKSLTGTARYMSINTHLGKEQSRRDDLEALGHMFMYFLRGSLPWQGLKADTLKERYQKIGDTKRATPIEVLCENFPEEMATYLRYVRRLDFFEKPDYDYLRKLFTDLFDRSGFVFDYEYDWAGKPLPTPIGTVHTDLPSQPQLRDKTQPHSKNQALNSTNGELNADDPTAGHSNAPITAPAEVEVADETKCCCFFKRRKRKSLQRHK
Assay [7] has as its target T3, PKC zeta (Homo sapiens, UniProt Q05513).
T3 sequence (Q05513 1-592): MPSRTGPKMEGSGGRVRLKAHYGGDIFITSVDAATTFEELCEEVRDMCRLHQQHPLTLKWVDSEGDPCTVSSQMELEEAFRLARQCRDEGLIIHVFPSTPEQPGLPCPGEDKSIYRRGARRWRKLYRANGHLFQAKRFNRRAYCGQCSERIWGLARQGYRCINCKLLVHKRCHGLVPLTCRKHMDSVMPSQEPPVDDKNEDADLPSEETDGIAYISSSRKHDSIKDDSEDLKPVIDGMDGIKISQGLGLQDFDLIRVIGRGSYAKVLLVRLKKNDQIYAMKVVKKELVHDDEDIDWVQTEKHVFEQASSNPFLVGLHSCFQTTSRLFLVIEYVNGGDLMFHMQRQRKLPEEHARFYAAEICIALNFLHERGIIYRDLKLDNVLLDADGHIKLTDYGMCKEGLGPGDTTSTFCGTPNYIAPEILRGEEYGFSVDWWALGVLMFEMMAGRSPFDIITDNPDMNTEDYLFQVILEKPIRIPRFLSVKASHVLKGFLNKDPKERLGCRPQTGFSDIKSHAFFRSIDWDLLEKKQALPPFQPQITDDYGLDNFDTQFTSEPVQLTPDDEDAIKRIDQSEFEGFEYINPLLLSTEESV
The assay is described as follows: Kinase profiling. It is filed as biochemical.

Usually remaining activity stands for the signal under treatment as a percentage of the control signal.

PKB beta, sequence (P31751 whole entry): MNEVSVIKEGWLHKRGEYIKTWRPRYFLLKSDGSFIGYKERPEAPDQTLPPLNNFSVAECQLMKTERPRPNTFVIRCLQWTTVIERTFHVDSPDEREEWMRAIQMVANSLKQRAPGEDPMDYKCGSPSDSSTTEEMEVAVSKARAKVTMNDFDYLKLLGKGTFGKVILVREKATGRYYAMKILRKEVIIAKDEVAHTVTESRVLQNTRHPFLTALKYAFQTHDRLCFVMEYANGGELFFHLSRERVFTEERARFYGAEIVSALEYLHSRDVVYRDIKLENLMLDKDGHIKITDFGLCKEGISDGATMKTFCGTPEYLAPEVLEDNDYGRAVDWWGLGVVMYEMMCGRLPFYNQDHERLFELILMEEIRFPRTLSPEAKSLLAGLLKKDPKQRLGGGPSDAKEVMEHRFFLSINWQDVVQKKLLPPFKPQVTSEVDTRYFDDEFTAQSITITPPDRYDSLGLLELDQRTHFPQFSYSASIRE
HER4, sequence (Q15303 26-1308): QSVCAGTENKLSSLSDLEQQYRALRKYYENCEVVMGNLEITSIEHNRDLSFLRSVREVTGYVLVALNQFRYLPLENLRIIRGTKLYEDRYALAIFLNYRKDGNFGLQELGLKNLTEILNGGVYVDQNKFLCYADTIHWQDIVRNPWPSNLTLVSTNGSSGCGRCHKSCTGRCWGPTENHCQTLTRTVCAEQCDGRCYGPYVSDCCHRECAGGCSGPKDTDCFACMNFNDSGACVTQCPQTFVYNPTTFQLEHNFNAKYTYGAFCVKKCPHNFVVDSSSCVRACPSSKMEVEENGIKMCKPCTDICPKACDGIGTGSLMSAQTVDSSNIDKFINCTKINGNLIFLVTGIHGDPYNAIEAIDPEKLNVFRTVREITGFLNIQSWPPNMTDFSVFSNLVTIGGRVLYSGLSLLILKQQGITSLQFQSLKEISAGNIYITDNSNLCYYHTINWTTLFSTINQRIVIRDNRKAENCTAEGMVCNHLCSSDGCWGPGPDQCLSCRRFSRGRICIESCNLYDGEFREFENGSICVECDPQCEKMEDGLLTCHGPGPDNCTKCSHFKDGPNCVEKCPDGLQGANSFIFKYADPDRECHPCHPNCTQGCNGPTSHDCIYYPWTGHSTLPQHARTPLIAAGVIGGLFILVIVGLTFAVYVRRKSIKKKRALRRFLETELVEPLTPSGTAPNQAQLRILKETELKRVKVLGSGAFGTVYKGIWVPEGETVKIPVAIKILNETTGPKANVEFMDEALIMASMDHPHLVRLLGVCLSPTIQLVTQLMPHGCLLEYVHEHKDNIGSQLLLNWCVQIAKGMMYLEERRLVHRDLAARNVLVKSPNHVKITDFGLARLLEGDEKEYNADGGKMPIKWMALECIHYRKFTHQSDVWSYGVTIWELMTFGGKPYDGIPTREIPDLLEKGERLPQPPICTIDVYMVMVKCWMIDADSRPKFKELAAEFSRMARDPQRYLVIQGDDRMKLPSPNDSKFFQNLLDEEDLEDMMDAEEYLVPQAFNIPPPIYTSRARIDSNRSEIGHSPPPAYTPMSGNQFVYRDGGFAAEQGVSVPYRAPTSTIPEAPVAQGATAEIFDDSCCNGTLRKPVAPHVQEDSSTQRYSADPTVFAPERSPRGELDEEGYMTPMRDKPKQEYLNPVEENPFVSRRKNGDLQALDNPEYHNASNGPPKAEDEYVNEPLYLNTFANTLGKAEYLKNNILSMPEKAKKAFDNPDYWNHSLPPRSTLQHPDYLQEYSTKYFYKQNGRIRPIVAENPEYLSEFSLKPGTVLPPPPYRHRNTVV

Regarding `COc1cc(Nc2c(C#N)cnc3cc(OCCCN4CCN(C)CC4)c(OC)cc23)c(Cl)cc1Cl` [Bosutinib, bosutinib], the remaining activity at 0.1 µM in assay [1] was 9%; in assay [2] it was 102 ± 6%; in assay [4] it was 84 ± 13%; in assay [5] it was 92 ± 16%; in assay [6] it was 117 ± 1%; in assay [7] it was 91 ± 2%. Besides, the remaining activity at 1 µM in assay [1] amounted to 1 ± 1%; in assay [2], 90 ± 3%; in assay [4] it was 104 ± 15%; in assay [5] it was 98%; in assay [6] it was 108 ± 4%; in assay [7] it was 102 ± 4%. Besides, the “Production of IL-6, IL-12p40 and TNFα” value in assay [3] is listed as “inhibited”.

As for `Cc1nc(Nc2ncc(C(=O)Nc3c(C)cccc3Cl)s2)cc(N2CCN(CCO)CC2)n1` [Dasatinib], the remaining activity at 0.1 µM in assay [1] turned out to be 27 ± 1%; in assay [2] it was 94 ± 11%; in assay [4], 96 ± 18%; in assay [5] it was 94 ± 9%; in assay [6], 115%; in assay [7], 101 ± 3%. Further, the remaining activity at 1 µM amounted to 6% in assay [1]; 94 ± 2% in assay [2]; 100 ± 14% in assay [4]; 92 ± 1% in assay [5]; 113 ± 12% in assay [6]; 109 ± 7% in assay [7]. The “Production of IL-6, IL-12p40 and TNFα” value in assay [3] is on record as “inhibited”.
